Measured values: ChEMBL document CHEMBL1201862, “PubChem BioAssay data set” (2004)
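How tested: cells in 96-well plates exposed to compound for 48 hours at five concentrations. GI50 is the concentration that inhibits growth by half.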 Activity calls are given as the source filed them. Cut-off read from the data, not from the text of the source: active = GI50 up to about 1.1 µM and inactive = higher.

Assays:
Assay in all cases: NCI-60 cell line screen, 48 h
786-0 = system: 786-0
A549 = system: A549
DU-145 = system: DU-145
HT-29 = system: HT-29
KM12 = system: KM12
LOX IMVI = system: LOX IMVI
M14 = system: M14
Malme-3M = system: Malme-3M
NCI-H226 = system: NCI-H226
OVCAR-8 = system: OVCAR-8
PC-3 = system: PC-3
SF-268 = system: SF-268
SK-MEL-5 = system: SK-MEL-5
SNB-19 = system: SNB-19
SNB-75 = system: SNB-75
SW-620 = system: SW-620
UACC-62 = system: UACC-62
HOP-92 = system: HOP-92
K562 = system: K562
NCI-H460 = system: NCI-H460

Measured: GI50

CC1(CC(=O)OC(C#C[Si](C)(C)C)Cc2ccccc2)OCCO1 (stereo not given)
inactive: 786-0 > 100 µM | A549 > 100 µM | DU-145 > 100 µM | HT-29 > 100 µM | KM12 > 100 µM | LOX IMVI > 100 µM | M14 > 100 µM | Malme-3M > 100 µM | NCI-H226 > 100 µM | OVCAR-8 > 100 µM | PC-3 > 100 µM | SF-268 > 100 µM | SK-MEL-5 > 100 µM | SNB-19 > 100 µM | SNB-75 > 100 µM | SW-620 > 100 µM | UACC-62 > 100 µM

O=C(NC(Cc1c[nH]c2ccccc12)C(=O)O)/C(=C/c1ccccc1O)NC(=O)c1ccccc1 (stereo not given)
inactive: 786-0 18.6 µM | A549 60.5 µM | DU-145 43.4 µM | HOP-92 14.5 µM | HT-29 > 100 µM | K562 > 100 µM | KM12 7.16 µM | LOX IMVI 33 µM | M14 > 100 µM | Malme-3M 22.4 µM | NCI-H226 16.3 µM | NCI-H460 33.2 µM | OVCAR-8 15.5 µM | SF-268 17.6 µM | SK-MEL-5 > 100 µM | SNB-19 22.7 µM | SNB-75 17.4 µM | SW-620 > 100 µM | UACC-62 24.2 µM

c1ccc(CCN2CCc3[nH]c4ccccc4c3C2)cc1
inactive: 786-0 17.1 µM | A549 24.6 µM | DU-145 > 100 µM | HOP-92 11.9 µM | HT-29 14.1 µM | K562 16.9 µM | KM12 17.3 µM | LOX IMVI 19.5 µM | M14 17.1 µM | Malme-3M 17.1 µM | NCI-H226 29.8 µM | NCI-H460 13.7 µM | OVCAR-8 20.4 µM | SF-268 71.1 µM | SK-MEL-5 16.5 µM | SNB-19 20.8 µM | SNB-75 29 µM | SW-620 16.1 µM | UACC-62 > 10 µM

O=S(=O)(CCn1c(Sc2ccccc2)c(Sc2ccccc2)c2ccccc21)c1ccccc1
inactive: 786-0 > 100 µM | A549 > 100 µM | DU-145 > 100 µM | HT-29 > 100 µM | K562 > 100 µM | KM12 > 100 µM | LOX IMVI > 100 µM | M14 > 100 µM | Malme-3M > 100 µM | NCI-H226 > 100 µM | NCI-H460 > 100 µM | OVCAR-8 > 100 µM | PC-3 > 100 µM | SF-268 > 100 µM | SK-MEL-5 > 100 µM | SNB-19 > 100 µM | SNB-75 > 100 µM | SW-620 > 100 µM | UACC-62 > 100 µM

C=CCOCCCCC(C(C)=O)C(=O)OC (stereo not given)
inactive: 786-0 > 100 µM | A549 > 100 µM | DU-145 > 100 µM | HOP-92 54.8 µM | HT-29 > 100 µM | K562 > 100 µM | KM12 > 100 µM | LOX IMVI > 100 µM | M14 > 100 µM | Malme-3M > 100 µM | NCI-H226 > 100 µM | NCI-H460 > 100 µM | OVCAR-8 > 100 µM | SF-268 > 100 µM | SK-MEL-5 > 100 µM | SNB-19 > 100 µM | SNB-75 > 100 µM | SW-620 > 100 µM | UACC-62 > 100 µM

O=C1C2C(C(=O)N1c1ccccc1)C1(c3ccccc3)CCC2(C(=O)c2ccccc2)O1 (stereo not given)
inactive: 786-0 > 10 µM | A549 > 10 µM | DU-145 > 10 µM | HT-29 > 10 µM | KM12 > 10 µM | LOX IMVI > 10 µM | M14 > 10 µM | Malme-3M > 10 µM | NCI-H460 > 10 µM | OVCAR-8 > 10 µM | PC-3 > 10 µM | SF-268 > 10 µM | SK-MEL-5 > 10 µM | SNB-19 > 10 µM | SW-620 > 10 µM | UACC-62 > 10 µM

C=CCSC1=N/C(=C\c2ccc(Cl)cc2)C(=O)N1CC=C
inactive: 786-0 35.7 µM | A549 32.7 µM | DU-145 20.5 µM | HOP-92 22.1 µM | HT-29 30.5 µM | K562 29.5 µM | KM12 24.9 µM | LOX IMVI 42.9 µM | M14 66.2 µM | NCI-H460 43.7 µM | OVCAR-8 47.2 µM | PC-3 20 µM | SF-268 40.6 µM | SK-MEL-5 16.1 µM | SNB-19 91.4 µM | SW-620 30.3 µM | UACC-62 30.2 µM

O=C1c2ccccc2C(=O)c2sc(Nc3ccc(Cl)c(Cl)c3)nc21
inactive: 786-0 1.82 µM | A549 23.5 µM | DU-145 18.8 µM | HOP-92 13.3 µM | HT-29 19.7 µM | K562 3.21 µM | KM12 7.83 µM | LOX IMVI 2.17 µM | M14 3.22 µM | Malme-3M 4.16 µM | NCI-H226 1.48 µM | NCI-H460 12.5 µM | OVCAR-8 3.7 µM | SF-268 4.97 µM | SK-MEL-5 2.32 µM | SNB-19 6.04 µM | SNB-75 8.05 µM | SW-620 1.61 µM | UACC-62 2.59 µM
